Where no end group is shown, it is not given here. The star is where a group is joined. Biotin = O=C1N[C@H]2[C@H](CS[C@H]2CCCCC(=O)*)N1
Columns and labels:
[1] = tested on: human HHAT; test: HHAT activity measurement with [3H] palmitoyl CoA and biotinylated substrate peptide on Streptavidin FlashPlate; assay type: biochemical; conditions: 10 μM substrate peptide, reaction 1 hour, FIG. 2
From the text: A peptide (Shh-(24-38)) having 15-mer peptide comprised of amino acids from the 24th position to the 38th position of human Shh (SEQ ID NO: 22) modified with biotin at the lysine residue at the carboxylic terminus, and a peptide (Shh-(24-45)) having 22-mer peptide comprised of amino acids from the 24th position to the 45th position of human Shh modified with biotin at the lysine residue at the carboxylic terminus, were synthesized as a substrate peptide. An HHAT activity measuring system was produced by adding 50 μl reaction buffer (10 mM Tris-HCl (pH7.4), 50 mM magnesium chloride, 2 μM [^3H] palmitoyl CoA, and 400 μg/ml of HHAT enzyme solution) to a 96-well plate coated with streptavidin and a scintillator (Streptavidin FlashPlate, PerkinElmer). The above-mentioned synthetic peptides were added to the reaction system and reacted for a predetermined period. Then, the reaction was terminated by adding 200 μl of 1% aqueous solution of Triton X-100 to the reaction solution. After the reaction, the radioactivity of the reaction solution was measured by the scintillation counter as an HHAT activity.
[^3H] palmitoyl CoA was prepared from [^3H] palmitic acid (GE Healthcare) by a method described in Methods in Enzymology, 250, 299-300, 1995. […]

[2] = tested on: human HHAT; test: Knockdown efficiency of siRNA checked with the TaqMan method (quantitative RT-PCR), human HHAT expression; assay type: cell-based; conditions: HT-29 cells, 100 nM siRNA, 5th day after introduction, vs non-silencing siRNA
Procedure: (§1) […] After culturing the cells overnight, siRNA to human Shh (Ambion; SEQ ID NO: 19), siRNA to human HHAT (Ambion; SEQ ID NO: 20), or non-silencing siRNA (Dhamacon, SEQ ID NO: 21) as a control was introduced. The introduction was performed by adding a mixture of 0.4 μl of DhamaFECT4 reagent (Dhamacon) per well and 100 nM of each siRNA to the cells. The knockdown efficiency of each siRNA at this point was checked with the TaqMan method. On the 5th day after the introduction of siRNA, total RNA was extracted from the HT-29 cells using RNeasy mini kit (QIAGEN), and cDNA was synthesized from a random primer using the TaqMan Gold RT-PCR kit (Applied Biosystems). 2 μl of the synthesized cDNA, 10 μl of 2×TaqMan Universal PCR Master Mix (Applied Biosystems), 1 μl of 20×TaqMan Gene Expression Assay (Applied Biosystems) to the human Shh or HHAT, and 7 μl of distilled water were added together to a total amount of 20 μl. This was used as a reaction solution of quantificative RT-PCR.
(§2) Regarding the reaction solution, the expression of human Shh or human HHAT was quantified in the ratio to GAPDH using the ABI PRISM 7700 Sequence Detection System. As compared with the control, the gene expression was suppressed by about 75% in the case of siRNA to human Shh and by about 60% in the case of siRNA to human HHAT.

[3] = tested on: human Shh; test: Knockdown efficiency of siRNA checked with the TaqMan method (quantitative RT-PCR), human Shh expression; assay type: cell-based; conditions: HT-29 cells, 100 nM siRNA, 5th day after introduction, vs non-silencing siRNA
Procedure: as §1, §2

Row | Substance | HHAT activity (radioactivity of [3H]-palmitic acid added to the substrate peptide) compared with control without HHAT enzyme solution [1] | also measured
1 | Shh-(24-38): 15-mer peptide of amino acids 24 to 38 of human Shh (SEQ ID NO: 22), biotin-modified at the carboxy-terminal lysine residue; HHAT substrate peptide (CGPGRGFGKRRHPKK(Biotin)) | conspicuous increase of the radioactivity | 
2 | Shh-(24-45): 22-mer peptide of amino acids 24 to 45 of human Shh, biotin-modified at the carboxy-terminal lysine residue; HHAT substrate peptide (CGPGRGFGKRRHPKKLTPLAYK(Biotin)) | conspicuous increase of the radioactivity | 
3 | siRNA to human HHAT: siRNA to human HHAT (Ambion; SEQ ID NO: 20) (GGAAUUUGAGCUGGAGACUTT; chemistry not given here) |  | suppression of gene expression of human HHAT (ratio to GAPDH) compared with the control [2]: about 60%
4 | siRNA to human Shh: siRNA to human Shh (Ambion; SEQ ID NO: 19) (GGGAAGAUCUCCAGAAACUTT; chemistry not given here) |  | suppression of gene expression of human Shh (ratio to GAPDH) compared with the control [3]: about 75%

Source: patent publication US20090047282A1, “Prophylactic/Therapeutic Agent for Cancer” (priority 2005, published 2009)
